Experimental data from patent publication US9521850B2 (University of Florida Research Foundation, Incorporated, priority 2012, dated 2016).
≈ marks a conversion by molar mass, not a printed value.

Columns and labels:
Experiment in all cases: microbe, parasite or virus in culture
Liberibacter crescens = assay type: cell-based
Rhizobium etli = assay type: cell-based
Bradyrhizobium japonicum = assay type: cell-based
Xanthomonas citri = assay type: cell-based, Xanthomonas citri subsp. citri
Mesorhizobium loti = assay type: cell-based
Sinorhizobium meliloti = assay type: cell-based
[1] = system: Agrobacterium tumefaciens; assay type: cell-based

SMILES | MBC (Liberibacter crescens; 24 h) | MIC (Liberibacter crescens; 24 h) | MBC (Liberibacter crescens; 120 h) | MIC (Liberibacter crescens; 120 h) | MBC (Rhizobium etli; 24 hrs) | MIC (Rhizobium etli; 24 hrs) | MBC (Rhizobium etli; 120 hrs) | MIC (Rhizobium etli; 120 hrs) | MBC (Bradyrhizobium japonicum; 24 hrs) | MIC (Bradyrhizobium japonicum; 24 hrs) | MBC (Bradyrhizobium japonicum; 120 hrs) | MIC (Bradyrhizobium japonicum; 120 hrs) | MBC (Xanthomonas citri) | MIC (Xanthomonas citri) | MBC (Mesorhizobium loti) | MIC (Mesorhizobium loti) | MBC (Sinorhizobium meliloti) | MIC (Sinorhizobium meliloti) | MBC [1] | MIC [1]
CC(C)[C@H](NC(=O)c1c(F)cccc1F)C(=O)Nc1ccc(-n2cnnn2)cc1 [SA1, 2,6-Difluoro-N-[(2S)-3-methyl-1-oxo-1-{[4-(1H-tetrazol-1-yl)phenyl]amino}-2-butanyl] benzamide] | 16 µg/mL (≈ 40 µM) | 16 µg/mL (≈ 40 µM) | 32 µg/mL (≈ 79.9 µM) | 32 µg/mL (≈ 79.9 µM) | 32 µg/mL (≈ 79.9 µM) | 16 µg/mL (≈ 40 µM) | 64 µg/mL (≈ 160 µM) | 32 µg/mL (≈ 79.9 µM) | 16 µg/mL (≈ 40 µM) | 16 µg/mL (≈ 40 µM) | 32 µg/mL (≈ 79.9 µM) | 32 µg/mL (≈ 79.9 µM) | 128 µg/mL (≈ 320 µM) | 64 µg/mL (≈ 160 µM) | 32 µg/mL (≈ 79.9 µM) | 16 µg/mL (≈ 40 µM) | 32 µg/mL (≈ 79.9 µM) | 16 µg/mL (≈ 40 µM) | 64 µg/mL (≈ 160 µM) | 32 µg/mL (≈ 79.9 µM)
Nc1c(C(=O)O)sc2nc(-c3ccccc3)cc(-c3ccc(F)cc3)c12 [SA2, 3-Amino-4-(4-fluorophenyl)-6-phenyl-thieno[2,3-b]pyridine-2-carboxylic acid] | 16 µg/mL (≈ 43.9 µM) | 16 µg/mL (≈ 43.9 µM) | 32 µg/mL (≈ 87.8 µM) | 32 µg/mL (≈ 87.8 µM) | 32 µg/mL (≈ 87.8 µM) | 16 µg/mL (≈ 43.9 µM) | 64 µg/mL (≈ 176 µM) | 32 µg/mL (≈ 87.8 µM) | 64 µg/mL (≈ 176 µM) | 32 µg/mL (≈ 87.8 µM) | 128 µg/mL (≈ 351 µM) | 64 µg/mL (≈ 176 µM) | 64 µg/mL (≈ 176 µM) | 32 µg/mL (≈ 87.8 µM) | 32 µg/mL (≈ 87.8 µM) | 16 µg/mL (≈ 43.9 µM) | 32 µg/mL (≈ 87.8 µM) | 16 µg/mL (≈ 43.9 µM) | 64 µg/mL (≈ 176 µM) | 32 µg/mL (≈ 87.8 µM)
CC(C)[C@H](NC(=O)c1ccccc1)C(=O)Nc1cccc(-n2cnnn2)c1 [SA3, N-[(2S)-3-Methyl-1-oxo-1-{[3-(1H-tetrazol-1-yl)phenyl]amino}-2-butanyl] benzamide] | 16 µg/mL (≈ 43.9 µM) | 8 µg/mL (≈ 22 µM) | 32 µg/mL (≈ 87.8 µM) | 16 µg/mL (≈ 43.9 µM) | 32 µg/mL (≈ 87.8 µM) | 32 µg/mL (≈ 87.8 µM) | 64 µg/mL (≈ 176 µM) | 64 µg/mL (≈ 176 µM) | 32 µg/mL (≈ 87.8 µM) | 16 µg/mL (≈ 43.9 µM) | 64 µg/mL (≈ 176 µM) | 32 µg/mL (≈ 87.8 µM) | 128 µg/mL (≈ 351 µM) | 64 µg/mL (≈ 176 µM) | 32 µg/mL (≈ 87.8 µM) | 16 µg/mL (≈ 43.9 µM) | 64 µg/mL (≈ 176 µM) | 32 µg/mL (≈ 87.8 µM) | 64 µg/mL (≈ 176 µM) | 32 µg/mL (≈ 87.8 µM)
O=C1CCCC2=C1[C@H](c1ccccc1)Nc1ccc(C(=O)c3ccccc3)cc1N2 [SA4, (11S)-7-Benzoyl-11-phenyl-2,3,4,5,10,11-hexahydro-1H-dibenzo[b,e] [1,4]diazepin-1-one] | 32 µg/mL (≈ 81.1 µM) | 16 µg/mL (≈ 40.6 µM) | 64 µg/mL (≈ 162 µM) | 32 µg/mL (≈ 81.1 µM) | 16 µg/mL (≈ 40.6 µM) | 8 µg/mL (≈ 20.3 µM) | 32 µg/mL (≈ 81.1 µM) | 16 µg/mL (≈ 40.6 µM) | 16 µg/mL (≈ 40.6 µM) | 8 µg/mL (≈ 20.3 µM) | 16 µg/mL (≈ 40.6 µM) | 16 µg/mL (≈ 40.6 µM) | 64 µg/mL (≈ 162 µM) | 32 µg/mL (≈ 81.1 µM) | 32 µg/mL (≈ 81.1 µM) | 16 µg/mL (≈ 40.6 µM) | 64 µg/mL (≈ 162 µM) | 32 µg/mL (≈ 81.1 µM) | 64 µg/mL (≈ 162 µM) | 16 µg/mL (≈ 40.6 µM)
COc1ccc(C2Nc3ccc(C(=O)c4ccccc4)cc3NC3=C2C(=O)CC(c2ccccc2)C3)cc1 (centres unmarked) [SA5, 7-Benzoyl-11-(4-methoxy-phenyl)-3-phenyl-2,3,4,5,10,11-hexahydro-1H-dibenzo[b,e] [1,4]diazepin-1-one] | 16 µg/mL (≈ 32 µM) | 8 µg/mL (≈ 16 µM) | 32 µg/mL (≈ 63.9 µM) | 16 µg/mL (≈ 32 µM) | 16 µg/mL (≈ 32 µM) | 16 µg/mL (≈ 32 µM) | 32 µg/mL (≈ 63.9 µM) | 32 µg/mL (≈ 63.9 µM) | 16 µg/mL (≈ 32 µM) | 16 µg/mL (≈ 32 µM) | 32 µg/mL (≈ 63.9 µM) | 32 µg/mL (≈ 63.9 µM) | 128 µg/mL (≈ 256 µM) | 64 µg/mL (≈ 128 µM) | 32 µg/mL (≈ 63.9 µM) | 16 µg/mL (≈ 32 µM) | 64 µg/mL (≈ 128 µM) | 32 µg/mL (≈ 63.9 µM) | 64 µg/mL (≈ 128 µM) | 32 µg/mL (≈ 63.9 µM)
O=C1CC(c2ccccc2)CC2=C1C(c1ccc(O)cc1)Nc1ccc(C(=O)c3ccccc3)cc1N2 (centres unmarked) [SA6, 7-Benzoyl-11-(4-hydroxy-phenyl)-3-phenyl-2,3,4,5,10,11-hexahydro-1H-dibenzo[b,e] [1,4]diazepin-1-one] | 16 µg/mL (≈ 32.9 µM) | 16 µg/mL (≈ 32.9 µM) | 64 µg/mL (≈ 132 µM) | 32 µg/mL (≈ 65.8 µM) | 32 µg/mL (≈ 65.8 µM) | 32 µg/mL (≈ 65.8 µM) | 64 µg/mL (≈ 132 µM) | 64 µg/mL (≈ 132 µM) | 32 µg/mL (≈ 65.8 µM) | 16 µg/mL (≈ 32.9 µM) | 32 µg/mL (≈ 65.8 µM) | 32 µg/mL (≈ 65.8 µM) | 128 µg/mL (≈ 263 µM) | 64 µg/mL (≈ 132 µM) | 32 µg/mL (≈ 65.8 µM) | 16 µg/mL (≈ 32.9 µM) | 32 µg/mL (≈ 65.8 µM) | 32 µg/mL (≈ 65.8 µM) | 64 µg/mL (≈ 132 µM) | 16 µg/mL (≈ 32.9 µM)
CCOc1ccc(C2Nc3ccc(C(=O)c4ccccc4)cc3NC3=C2C(=O)CCC3)cc1 (centres unmarked) [SA7, 7-Benzoyl-11-(4-ethoxy-phenyl)-2,3,4,5,10,11-hexahydro-1H-dibenzo[b,e] [1,4]diazepin-1-one] | 16 µg/mL (≈ 36.5 µM) | 16 µg/mL (≈ 36.5 µM) | 32 µg/mL (≈ 73 µM) | 32 µg/mL (≈ 73 µM) | 16 µg/mL (≈ 36.5 µM) | 16 µg/mL (≈ 36.5 µM) | 32 µg/mL (≈ 73 µM) | 32 µg/mL (≈ 73 µM) | 32 µg/mL (≈ 73 µM) | 32 µg/mL (≈ 73 µM) | 32 µg/mL (≈ 73 µM) | 32 µg/mL (≈ 73 µM) | 64 µg/mL (≈ 146 µM) | 32 µg/mL (≈ 73 µM) | 32 µg/mL (≈ 73 µM) | 16 µg/mL (≈ 36.5 µM) | 32 µg/mL (≈ 73 µM) | 16 µg/mL (≈ 36.5 µM) | 64 µg/mL (≈ 146 µM) | 16 µg/mL (≈ 36.5 µM)
O=C1CC(c2ccccc2)CC2=C1C(c1cccs1)Nc1ccc(C(=O)c3ccccc3)cc1N2 (centres unmarked) [SA8, 7-Benzoyl-3-phenyl-11-(2-thienyl)-2,3,4,5,10,11-hexahydro-1H-dibenzo[b,e] [1,4]diazepin-1-one] | 16 µg/mL (≈ 33.6 µM) | 16 µg/mL (≈ 33.6 µM) | 32 µg/mL (≈ 67.1 µM) | 32 µg/mL (≈ 67.1 µM) | 16 µg/mL (≈ 33.6 µM) | 8 µg/mL (≈ 16.8 µM) | 32 µg/mL (≈ 67.1 µM) | 16 µg/mL (≈ 33.6 µM) | 16 µg/mL (≈ 33.6 µM) | 8 µg/mL (≈ 16.8 µM) | 32 µg/mL (≈ 67.1 µM) | 32 µg/mL (≈ 67.1 µM) | 64 µg/mL (≈ 134 µM) | 32 µg/mL (≈ 67.1 µM) | 32 µg/mL (≈ 67.1 µM) | 16 µg/mL (≈ 33.6 µM) | 32 µg/mL (≈ 67.1 µM) | 16 µg/mL (≈ 33.6 µM) | 128 µg/mL (≈ 269 µM) | 32 µg/mL (≈ 67.1 µM)
Cc1cc([C@H]2Nc3ccc(C(=O)c4ccccc4)cc3NC3=C2C(=O)CC(C)(C)C3)cc(C)c1O [SA9, 11-(4-hydroxy-3,5-dimethyl-phenyl)-3,3-dimethyl-7-(phenyl-carbonyl)-2,3,4,5,10,11-hexahydro-1H-dibenzo[b,e] [1,4]diazepin-1-one] | 16 µg/mL (≈ 34.3 µM) | 16 µg/mL (≈ 34.3 µM) | 64 µg/mL (≈ 137 µM) | 32 µg/mL (≈ 68.6 µM) | 16 µg/mL (≈ 34.3 µM) | 8 µg/mL (≈ 17.1 µM) | 32 µg/mL (≈ 68.6 µM) | 16 µg/mL (≈ 34.3 µM) | 32 µg/mL (≈ 68.6 µM) | 16 µg/mL (≈ 34.3 µM) | 64 µg/mL (≈ 137 µM) | 32 µg/mL (≈ 68.6 µM) | 64 µg/mL (≈ 137 µM) | 32 µg/mL (≈ 68.6 µM) | 32 µg/mL (≈ 68.6 µM) | 16 µg/mL (≈ 34.3 µM) | 32 µg/mL (≈ 68.6 µM) | 16 µg/mL (≈ 34.3 µM) | 64 µg/mL (≈ 137 µM) | 32 µg/mL (≈ 68.6 µM)
COc1ccc(NC(=O)C2(N(C(=O)c3ccc(-n4cnnn4)cc3)c3ccc(OC)cc3)CCCCC2)cc1 [SSC8, N-(4-methoxy-phenyl)-N-{1-[(4-methoxy-phenyl)carbamoyl]cyclohexyl}-4-(1H-tetrazol-1-yl)benzamide] | 16 µg/mL (≈ 30.4 µM) | 16 µg/mL (≈ 30.4 µM) | 32 µg/mL (≈ 60.8 µM) | 32 µg/mL (≈ 60.8 µM) | 32 µg/mL (≈ 60.8 µM) | 16 µg/mL (≈ 30.4 µM) | 64 µg/mL (≈ 122 µM) | 32 µg/mL (≈ 60.8 µM) | 16 µg/mL (≈ 30.4 µM) | 8 µg/mL (≈ 15.2 µM) | 32 µg/mL (≈ 60.8 µM) | 16 µg/mL (≈ 30.4 µM) | 64 µg/mL (≈ 122 µM) | 32 µg/mL (≈ 60.8 µM) | 32 µg/mL (≈ 60.8 µM) | 16 µg/mL (≈ 30.4 µM) | 32 µg/mL (≈ 60.8 µM) | 16 µg/mL (≈ 30.4 µM) | 64 µg/mL (≈ 122 µM) | 32 µg/mL (≈ 60.8 µM)
